Source: ChEMBL document CHEMBL5120942, “Designing a Small Fluorescent Inhibitor to Investigate Soluble Epoxide Hydrolase Engagement in Living Cells” (ACS Med Chem Lett, 2022)
Active and inactive are the calls of the source. The calls are words filed in the database; no cut-off is given here.

Experiments:
[1] = target: T1, Bifunctional epoxide hydrolase 2 (Homo sapiens, UniProt P34913); assay: (§1) Inhibition of C-terminal domain of human sEH-H assessed as reduction in fluorescent naphthalene aldehyde formation using PHOME as substrate preincubated with enzyme for 30 mins followed by substrate addition and measured every minute for 45 mins by fluorescence based analysis
T1 sequence (P34913 whole entry): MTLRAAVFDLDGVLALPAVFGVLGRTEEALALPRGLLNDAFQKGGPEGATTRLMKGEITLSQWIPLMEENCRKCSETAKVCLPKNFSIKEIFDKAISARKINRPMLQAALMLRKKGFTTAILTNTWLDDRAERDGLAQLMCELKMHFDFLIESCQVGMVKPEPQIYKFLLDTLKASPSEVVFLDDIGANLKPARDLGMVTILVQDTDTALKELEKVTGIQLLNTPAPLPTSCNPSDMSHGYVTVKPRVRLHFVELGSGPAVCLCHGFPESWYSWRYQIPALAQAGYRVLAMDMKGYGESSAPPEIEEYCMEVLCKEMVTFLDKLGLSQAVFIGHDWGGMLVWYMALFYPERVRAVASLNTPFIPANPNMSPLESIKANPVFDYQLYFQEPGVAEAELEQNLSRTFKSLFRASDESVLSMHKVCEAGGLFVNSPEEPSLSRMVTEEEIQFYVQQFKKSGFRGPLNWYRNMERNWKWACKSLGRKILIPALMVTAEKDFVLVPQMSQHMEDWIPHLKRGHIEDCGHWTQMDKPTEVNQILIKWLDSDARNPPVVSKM

[2] = target: T1, Bifunctional epoxide hydrolase 2; assay: Displacement of (1R,3S)-N-(4-methoxy-2-(trifluoromethyl)benzyl)-3-((7-nitrobenzo[c][1,2,5]-oxadiazol-4-yl)amino)cyclohexane-1-carboxamide from NanoLuc-fused human sEH ( 1 to 555 residues) expressed in HEK293T cells incubated for 5 hrs by NanoBRET analysis; type: cell-based; conditions: read-out: Ki(app)
[3] = target: T1, Bifunctional epoxide hydrolase 2; assay: Inhibition of human sEH BacMam transduced HEK293 cells assessed as reduction in 14,15-DHET formation using 14,15-EET as substrate preincubated for 30 mins followed by susbtrate addition and measured after 90 mins by fluorescence polarization assay; type: cell-based
[4] = target: T2, Bifunctional epoxide hydrolase 2 (Homo sapiens) (UniProt P34913); assay: as §1; conditions: time 75.0 min, DDE = dose-dependent effect
T2 sequence (whole entry): T1 sequence (P34913 whole entry)

[5] = target: T3, Bifunctional epoxide hydrolase 2 (Mus musculus) (UniProt P34914); assay: (§2) Inhibition of C-terminal domain of mouse sEH-H assessed as reduction in fluorescent naphthalene aldehyde formation using PHOME as substrate preincubated with enzyme for 30 mins followed by substrate addition and measured every minute for 45 mins by fluorescence based analysis; conditions: time 75.0 min, DDE = dose-dependent effect
T3 sequence (whole entry): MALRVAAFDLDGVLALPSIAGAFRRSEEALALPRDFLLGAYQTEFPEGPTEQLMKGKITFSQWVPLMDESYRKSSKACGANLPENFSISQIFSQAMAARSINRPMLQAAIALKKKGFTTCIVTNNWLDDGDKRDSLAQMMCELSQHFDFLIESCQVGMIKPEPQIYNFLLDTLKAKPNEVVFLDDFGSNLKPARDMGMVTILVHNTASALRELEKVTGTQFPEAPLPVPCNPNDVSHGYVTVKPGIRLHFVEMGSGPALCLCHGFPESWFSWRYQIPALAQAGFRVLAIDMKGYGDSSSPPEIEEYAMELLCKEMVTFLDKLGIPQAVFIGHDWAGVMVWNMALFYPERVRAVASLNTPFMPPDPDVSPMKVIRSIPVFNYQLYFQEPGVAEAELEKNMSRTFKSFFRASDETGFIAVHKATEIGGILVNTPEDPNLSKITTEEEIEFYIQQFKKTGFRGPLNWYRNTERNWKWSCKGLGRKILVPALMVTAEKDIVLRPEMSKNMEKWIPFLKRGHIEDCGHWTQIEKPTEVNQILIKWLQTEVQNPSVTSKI

[6] = target: T4, Bifunctional epoxide hydrolase 2 (Mus musculus, UniProt P34914); assay: as §2
T4 sequence (P34914 whole entry): T3 sequence (whole entry)

[7] = target: T2, Bifunctional epoxide hydrolase 2 (Homo sapiens); assay: Binding affinity to C-terminal domain of human sEH-H at 20 nM incubated for 1 hr by fluorescence polarization assay
[8] = target: T1, Bifunctional epoxide hydrolase 2; assay: Binding affinity to NanoLuc-fused human sEH ( 1 to 555 residues) expressed in HEK293T cells incubated for 5 hrs by NanoBRET analysis; type: cell-based
[9] = target: T2, Bifunctional epoxide hydrolase 2 (Homo sapiens); assay: Binding affinity to human full length sEH (1 to 555 residues) expressed in doxycycline-induced HEK293 cells at 300 nM incubated for 5 hrs by Hoechst 33342 staining based fluorescence microscopy; type: cell-based
[10] = target: T3, Bifunctional epoxide hydrolase 2 (Mus musculus); assay: Binding affinity to sEH in C57BL/6J mouse astrocytes at 10 uM incubated for 5 hrs by DAPI staining based immunocytochemistry; type: cell-based; conditions: Astrocyte

Row | IC50 [1] [µM] | Ki [2] [µM] | IC50 [3] [µM] | inhibition [4] | inhibition [5] | IC50 [6] [µM] | Activity [7] | Kd [8] [µM] | Activity [9] | Activity [10] | SMILES
1 | 0.0026 | 0.016 | 0.034 |  |  |  |  |  |  |  | O=C(O)CCCCCCCCCCNC(=O)NC12CC3CC(CC(C3)C1)C2
2 | 0.0294 | 0.583 |  |  |  |  |  |  |  |  | O=C(NCc1ccc(NS(=O)(=O)C2CC2)cc1C(F)(F)F)c1ccc2[nH]ccc2c1
3 | 0.00143 |  |  | Dde | Dde | 0.00771 | Active | 0.006 | Active | Active | COc1ccc(CNC(=O)[C@@H]2CCC[C@H](Nc3ccc([N+](=O)[O-])c4nonc34)C2)c(C(F)(F)F)c1
4 |  | 0.024 |  |  |  |  |  |  |  |  | CNc1nc(C)nc(N[C@H]2CCC[C@@H](C(=O)NCc3ccc(C#N)cc3C(F)(F)F)C2)n1 [GSK2256294]
